Measured values as given in patent US20130102645A1, “Methods and compositions for controlling vascularization in ophthalmological and dermatological diseases” (AVIENNE PHARMACEUTICALS GMBH, priority 2011, published 2013).
In brackets after ≈: the same amount, converted by molar mass. Entries after “also recorded” stand apart in the source; their conditions may differ. Read-outs that look alike come from different tables or passages of the source.

Experiments:
endothelial cell lines = test: proliferation assay of primary endothelial cells, direct cell counting; assay type: cell-based, human
Experimental: Primary endothelial cell lines (HMVEC-dLyAd—human dermal lymphatic microvascular endothelial cells (EC), dermal blood microvascular EC, HMVEC-LB lung blood microvascular EC, HMVEC-C cardiac human microvascular endothelial cells and MVEC-d—dermal microvascular EC) are from Cambrex Bio Science (Cambrex Bio Science Walkersville Inc., Walkersville, Md., USA). Cell lines are cultured according to the manufacturer's recommendations.
For proliferation assays, cells are seeded in 24- to 96-well plates in medium at different concentrations according to the cell type. After 24 hours, the medium is removed and replaced with fresh medium containing increasing concentrations of the compounds. The plates are then incubated for additional 24 to 72 hours, depending on the type of the experiment. Cells are then trypsinized and collected for direct counting. Results are plotted and expressed as means (±SE) for each compound and for a given concentration.

HUVEC = test: growth inhibition of HUVEC cell lines; assay type: cell-based; settings: Homo sapiens, read-out: IC50 for growth inhibition of HUVECs
Experimental: For proliferation assays, cells are seeded in 24- to 96-well plates in medium at different concentrations according to the cell type. […] Cells are then trypsinized and collected for direct counting. Results are plotted and expressed as means (±SE) for each compound and for a given concentration.
In Table 2, the group “R” is defined as follows: […]

[1] = tested on: SAOS-2, Hela, HT29, U87MG and SK-N-DZ cells; test: cytotoxic activity in cancer cell lines by cell numbers; assay type: cell-based; settings: up to 20 μM; uncoated dishes or coated with vitronectin or fibrinogen
Experimental: For example, cytotoxic activity of AV-398 was determined in several cancer cell lines (SAOS-2, Hela, HT29, U87MG and SK-N-DZ cells) by assessing cell numbers after treating cell lines with varying concentration of up to 20 μM. Experiments were performed either on uncoated dishes, or on dishes coated with vitronectin or fibrinogen. In addition, tumor cell lines were treated in parallel with echistatin (Gan Z R et al (1998)). […] Similar data were recently published showing cytotoxic activity also only against MDA-MB-435 breast cancer cells (Dayam R et al, 2006).

MDA-MB-435 = test: cytotoxic activity in breast cancer cell line; assay type: cell-based; settings: up to 20 μM
ocular angiogenesis = test: conjunctival incision angiogenesis model in pigs, eye drops; assay type: in vivo, pig
Text: AV-398 inhibits ocular angiogenesis in vivo in a widely accepted large animal model. The cornea is an ideal model system for angiogenesis in general, and more specifically for angiogenesis of the eye. The corneal angiogenesis assay is one of the most widely used in vivo assay for the evaluation of factors influencing angiogenesis (Auerbach R, 2003, Thiele W, 2006). One reason that makes the cornea an ideal object for observing neovascularization is its normal lack of vascularity, maintained by different molecular mechanisms. New vessels can easily be identified by visual inspection alone and quantified with the help of computerized image analysis programs. The effect of an ophthalmological formulation of AV-398 after a conjunctival insult with subsequent angiogenesis in a large animal model was investigated in order to test whether the in vitro data, such as anti-proliferative effects on human endothelial cells, could be reproduced in vivo.
Six white pigs weighing 10 to 15 kg were included. First, corneae and conjunctivae were anaesthesized by local application of lidocaine 4%. Then, an incision of 0.5 cm length through the conjunctival tunica sclerae to the substantia propria was placed in parallel to the dorsal corneal limbus at a distance of approximately 2 mm. The animals were treated as follows. The right eye of each animal was treated with a commercially available ocular eye drop solution (PROTAGENT® EYE DROPS 2%) containing 100 μg/ml of AV-398. The corresponding left eyes of each animal were control-treated with the same eye drop solution alone. Two droplets (˜100 μl) of AV-398 were applied in the right eye immediately after setting of the incision and two droplets of the ophthalmologic carrier formula as negative control in the left eye of the same animal. Animals received AV-398 as well as the eye drops 0.5 hrs post incision and the same treatment at 3 hrs post incision.

[2] = tested on: chorioallantoic membrane (CAM) of the developing chicken embryo; test: chicken egg chorioallantoic membrane (CAM) assay; assay type: in vivo; settings: applied on CAM day 6 p.f., incubated until day 11 p.f.
Text: Local application of AV-398 inhibits in vivo angiogenesis as evidenced by the chicken egg chorioallantoic membrane model. The chorioallantoic membrane (CAM) of the developing chicken embryo serves as an alternative to the traditional mammalian in vivo models, and further corroborates the findings in pigs described above and has clear relevance for the treatment e.g. dermatological indications linked to neoangiogenesis. AV-398 was applied over 5 days.
Eggs were opened on day 6 post fertilization (p.f.). Substances (200 μl respectively) were applied on the CAM on day 6 p.f. and incubated until day 11 p.f. As a vehicle control, 1% DMSO in PBS (phosphate-buffered saline solution pH 7.4) without AV-398 was used. Eggs were inspected daily by stereo-microscopy and pictures were taken (6× magnification).

[3] = rat pharmacokinetics, plasma LC-MS/MS; assay type: in vivo; settings: for half-life: iv, 5 mg/kg
Experimental: (§1) Preliminary pharmacokinetic and preliminary toxicology information was obtained following a single intravenous dose of 5 mg/kg and a single 20 mg/kg PO dose to male Sprague-Dawley rats for 5 separate test articles. AV-398 was dosed both via the IV and PO routes. Blood was collected from the animals in Groups 1 through 10 for pharmacokinetic analysis. Approximately 0.25 mL of blood was collected in potassium EDTA tubes via the jugular cannulae for all time points. For all IV treated animals, blood was collected at 9 time points (0.083, 0.25, 0.5, 1, 2, 4, 6, 8 and 12 hour post-dose) via the jugular cannulae. For all animals treated by oral gavage, blood was collected at 7 time points (0.5, 1, 2, 4, 6, 8 and 12 hour post-dose) via the jugular cannulae. At the final time point additional blood volume was collected in a separate EDTA tube from each animal for clinical pathology evaluation (including serum chemistry and hematology). Predose samples were collected from the extra animals which were not assigned to any of the dose groups. The plasma samples were analyzed by LC-MS/MS to determine the plasma concentrations of drug candidates. Pharmacokinetic analysis of the plasma concentration data was conducted using non-compartmental analysis with WinNonlin Version 4.1. […] The oral absorption of AV-398 when administered at 20 mg/kg dose as a suspension was low at an average of 8.4%.

[4] = rat clinical pathology (serum chemistry and hematology); assay type: in vivo; settings: rats, single 5 mg/kg IV or 20 mg/kg PO
Experimental: as §1

solubility = assay type: physicochemical
Experimental: Sufficiently concentrated solutions are readily achievable. AV-398 is soluble in PBS 7.4 at 100 μg/ml, in Tris.Cl buffer at 1 mg/ml, and as a sodium salt at least up to 20 mg/ml.

αvβ3-receptor = αvβ3-receptor (Homo sapiens, UniProt P05106+P06756); settings: cited from earlier work
endothelial cells = settings: read-out: IC50, colony-forming ability of endothelial cells; cited from earlier work

Sequence of αvβ3-receptor (P06756 31-889 limits assumed): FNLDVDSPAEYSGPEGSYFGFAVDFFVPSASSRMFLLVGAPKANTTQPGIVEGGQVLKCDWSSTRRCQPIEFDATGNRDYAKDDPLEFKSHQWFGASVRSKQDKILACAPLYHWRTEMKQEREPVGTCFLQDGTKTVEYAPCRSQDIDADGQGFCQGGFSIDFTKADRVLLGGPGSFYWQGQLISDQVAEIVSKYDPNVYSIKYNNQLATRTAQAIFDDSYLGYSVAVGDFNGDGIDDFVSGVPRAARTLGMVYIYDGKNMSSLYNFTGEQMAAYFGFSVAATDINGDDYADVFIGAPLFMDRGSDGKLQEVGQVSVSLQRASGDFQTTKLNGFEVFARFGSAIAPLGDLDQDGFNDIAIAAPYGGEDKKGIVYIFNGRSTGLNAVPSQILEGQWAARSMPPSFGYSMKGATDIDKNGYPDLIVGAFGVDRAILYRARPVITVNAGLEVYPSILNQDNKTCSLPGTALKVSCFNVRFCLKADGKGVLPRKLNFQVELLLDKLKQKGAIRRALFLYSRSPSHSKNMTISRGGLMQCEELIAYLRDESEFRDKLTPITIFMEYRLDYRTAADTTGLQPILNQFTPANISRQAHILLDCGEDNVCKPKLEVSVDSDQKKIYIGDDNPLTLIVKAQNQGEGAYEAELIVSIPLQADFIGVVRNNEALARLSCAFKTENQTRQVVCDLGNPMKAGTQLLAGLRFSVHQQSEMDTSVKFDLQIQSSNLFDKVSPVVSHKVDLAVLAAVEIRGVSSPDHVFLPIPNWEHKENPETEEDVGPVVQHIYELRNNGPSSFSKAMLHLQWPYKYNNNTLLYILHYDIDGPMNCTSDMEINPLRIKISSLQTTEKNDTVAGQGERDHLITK
Sequence of αvβ3-receptor (P06756 891-1048 partner limits assumed): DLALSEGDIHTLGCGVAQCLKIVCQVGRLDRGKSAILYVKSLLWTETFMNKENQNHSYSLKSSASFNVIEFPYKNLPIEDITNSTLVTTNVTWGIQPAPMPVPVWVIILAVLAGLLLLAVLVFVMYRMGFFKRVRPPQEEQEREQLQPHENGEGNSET
Sequence of αvβ3-receptor (P05106 27-788): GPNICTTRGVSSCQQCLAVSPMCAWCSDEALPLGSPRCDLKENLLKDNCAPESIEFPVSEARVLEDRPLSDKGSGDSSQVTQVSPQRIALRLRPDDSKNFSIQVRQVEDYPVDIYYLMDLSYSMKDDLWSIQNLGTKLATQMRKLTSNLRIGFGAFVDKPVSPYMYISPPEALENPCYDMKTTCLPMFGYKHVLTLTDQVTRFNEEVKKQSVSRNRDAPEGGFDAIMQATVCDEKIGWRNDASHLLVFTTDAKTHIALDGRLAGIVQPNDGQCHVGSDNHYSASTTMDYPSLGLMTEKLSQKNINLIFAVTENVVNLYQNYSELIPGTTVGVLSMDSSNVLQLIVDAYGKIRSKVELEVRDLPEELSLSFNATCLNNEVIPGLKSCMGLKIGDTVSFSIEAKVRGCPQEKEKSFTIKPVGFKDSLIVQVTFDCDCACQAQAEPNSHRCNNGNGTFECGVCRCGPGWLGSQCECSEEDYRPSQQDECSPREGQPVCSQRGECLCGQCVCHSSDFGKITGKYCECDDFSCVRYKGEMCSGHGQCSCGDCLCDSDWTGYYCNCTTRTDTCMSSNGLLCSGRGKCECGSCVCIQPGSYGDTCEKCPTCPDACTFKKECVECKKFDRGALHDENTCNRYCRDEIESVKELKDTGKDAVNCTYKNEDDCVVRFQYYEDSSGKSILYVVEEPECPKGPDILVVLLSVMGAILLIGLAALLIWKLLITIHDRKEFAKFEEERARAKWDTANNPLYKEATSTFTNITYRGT

Compound: CCOc1cc(C=C2S/C(=N/c3ccc(C(=O)O)cc3)N(C)C2=O)ccc1O (stereo in doubt) [AV-398, 4-({5-[(E)-1-(3-ethoxy-4-hydroxyphenyl)methylidene]-3-methyl-4-oxo-1,3-thiazolan-2-yliden}amino)benzoic acid]
- IC50 (endothelial cell lines; Homo sapiens, Endothelial cell, endothelial cells (lung, lymphatics, umbilical), FIGS. 1-3, read-out: Half-maximal growth inhibition): 400 nM
- IC50 (endothelial cell lines; Homo sapiens, endothelial cell lines, read-out: 50% inhibitory concentration): 200 to 500 nM
- IC50 (HUVEC): < 300 nM
- effects on cancer cell lines (cytotoxic activity) [1]: no meaningful effects
- activity against breast cancer cell line MDA-MB-435 (MDA-MB-435): limited activity
- neoangiogenesis on conjunctivae vs control-treated eyes (ocular angiogenesis; eye drops 100 μg/ml, right eye, left eye vehicle): diminished neoangiogenesis
- bleeding surrounding the incision (ocular angiogenesis; immediately after treatment): marked diffuse bleeding
- local or systemic adverse side effects (ocular angiogenesis; three weeks post incision): no local or systemic adverse side effects
- vascularization of CAM / chicken embryo vs vehicle control [2]: markedly decreased vascularization; also recorded: significant reduction of vascularization
- oral absorption (average) ([3]; 20 mg/kg as a suspension): 8.4%
- peak plasma concentration (average) ([3]; IV 5 mg/kg): 1736.56 ng/mL
- time of peak plasma concentration ([3]; IV 5 mg/kg): 0.083 h
- peak plasma concentration (mean) ([3]; PO 20 mg/kg suspension): 54.07 ng/mL
- AUC(0-inf) ([3]; male, Sprague-Dawley, plasma, IV 5 mg/kg): 690 ng·h/mL
- AUC(0-t) ([3]; male, Sprague-Dawley, plasma, PO 20 mg/kg suspension, read-out: average AUC (0-12 hr)): 234 ng·h/mL
- half-life ([3]; male, Sprague-Dawley, plasma, IV 5 mg/kg, read-out: Terminal plasma half-life (converted)): 30 min
- half-life ([3]; male, Sprague-Dawley, plasma, IV 5 mg/kg, read-out: terminal plasma half-life (range)): 10.8 to 40.8 min
- half-life ([3]; male, Sprague-Dawley, plasma, after intravenous administration, read-out: terminal plasma half-life (converted)): 30 min
- effects on hematological and serum chemistry parameters [4]: no side-related effects
- solubility (solubility; Tris.Cl buffer, aqueous buffer): 1000 µg/mL (≈ 2510 µM)
- solubility (solubility; as a sodium salt): ≥ 20000 µg/mL
- solubility (solubility; pH 7.4, aqueous buffer, PBS 7.4): 100 µg/mL (≈ 251 µM)
- αυβ3 binding affinity (αvβ3-receptor): 240 nM

Compound: CC(C)[C@H]1C(=O)N[C@@H](CCCN=C(N)N)C(=O)NCC(=O)N[C@@H](CC(=O)O)C(=O)N[C@H](Cc2ccccc2)C(=O)N1C [Cilengitide, cycloL-Arg-Gly-L-Asp-D-Phe-N [Me] L-Val]
- IC50 (endothelial cells): 6.7 ± 1.2 µM

Compound: echistatin [reference compound]
- IC50 (endothelial cell lines; endothelial cells (lung, lymphatics, umbilical), FIGS. 1-3, read-out: Half-maximal growth inhibition): 800 nM
